Experiments:
Format in all cases: biochemical
SIK1 = SIK1 (Homo sapiens, UniProt P57059); test: Enzymatic activity assay SIK1, RapidFire mass spectrometry (phosphorylation of CHK-peptide); conditions: RapidFire MS, inhibition of SIK1; read-out: SIK1 RF IC50
Experimental: (§1) Assay description SIK1-3, RapidFire:
(§2) In the presence of SIK2 (resp. SIK1 or SIK3) and ATP the CHK-peptide ([…] with C-terminal arginine amide modification) were phosphorylated at one of the four feasible serine's. Only one phosphorylation is observed under the assay conditions. 60 nl of each compound dilution series (12 point; dilution factor 3, generally 30 μM to 170 pM) in DMSO were transferred by acoustic dispensing to the assay plate and 30 min pre-incubated (ambient temperature) after the addition of 5 μl SIK1 (5 nM) resp. 5 μl SIK2 (0.5 nM) or 7 μl SIK3 (1.5 nM) in assay-buffer (12.5 mM HEPES (pH 7.0), 10 mM magnesium acetate, 0.005% BSA). 10 μM CHK-peptide solution and 5 μl 100 μM ATP for SIK1 & SIK2 resp. 3 μl for SIK3 in assay-buffer were added and incubated ambient for 45 min. 40 μl 0.125% formic acid in water were added to quench the reaction. RapidFire (RF) Mass Spectrometry was utilized for data generation as described below. The multiple charged species (3-5 charges) for the phosphorylated and non-phosphorylated form measured by MRM (Multiple Reaction Monitoring; API5000 or 6500+) or EIC (Extracted Ion Current; QToF) were summed up and the ratio calculated (sum phosphorylated species/sum all species) for data evaluation. Normalization was performed by Genedata software based on the non-inhibition control DMSO and the commercially available SIK inhibitor @ 1 μM YKL-05-099 (CAS number 1936529-65-5). The results of the assay are expressed in half-maximal inhibitory concentrations (IC50s) and are summarized below in Table 1.
(§3) Samples were aspirated by vacuum for max. 600 ms and loaded to C4-cartridge (Agilent; #G9203A) for 3000 ms@1.5 ml/min with 0.1% formic acid in water. Afterwards samples were transferred to the APT5000 (APT6500+) or QToF mass spectrometer for 4000 ms@1.25 ml/min with 90% acetonitrile; 10% water; 0.007% TFA; 0.093 formic acid. The cartridge was reconditioned for additional 500 ms with 0.1% formic acid in water
(§4) All MS analyses using the following MS-setup in MRM mode: Electrospray positive; Ion Spray Voltage: 4000V; Temperature: 550° C.; Collision Gas: 5; Curtain Gas: 15; Gas1: 40; Gas 2: 42; EP: 10
(§5) MS-Setup Agilent QToF 6545
(§6) All MS analyses using the following MS-setup in Mode MS: Dual AJS Electrospray positive; VCap: 3000V; Drying & Sheath gas: 340° C.@81/min; Nebulizer: 60 psig; Nozzle Voltage: 2000V; Fragmentor: 130V; Skimmer: 35V; Oct1 RF Vpp: 700V; Ref masses on@5spectra/s

SIK2 = SIK2 (Homo sapiens, UniProt Q9H0K1); test: Enzymatic activity assay SIK2, RapidFire mass spectrometry (phosphorylation of CHK-peptide); conditions: RapidFire MS, inhibition of SIK2; read-out: SIK2 RF IC50
Chain of SIK2 (Q9H0K1 whole entry): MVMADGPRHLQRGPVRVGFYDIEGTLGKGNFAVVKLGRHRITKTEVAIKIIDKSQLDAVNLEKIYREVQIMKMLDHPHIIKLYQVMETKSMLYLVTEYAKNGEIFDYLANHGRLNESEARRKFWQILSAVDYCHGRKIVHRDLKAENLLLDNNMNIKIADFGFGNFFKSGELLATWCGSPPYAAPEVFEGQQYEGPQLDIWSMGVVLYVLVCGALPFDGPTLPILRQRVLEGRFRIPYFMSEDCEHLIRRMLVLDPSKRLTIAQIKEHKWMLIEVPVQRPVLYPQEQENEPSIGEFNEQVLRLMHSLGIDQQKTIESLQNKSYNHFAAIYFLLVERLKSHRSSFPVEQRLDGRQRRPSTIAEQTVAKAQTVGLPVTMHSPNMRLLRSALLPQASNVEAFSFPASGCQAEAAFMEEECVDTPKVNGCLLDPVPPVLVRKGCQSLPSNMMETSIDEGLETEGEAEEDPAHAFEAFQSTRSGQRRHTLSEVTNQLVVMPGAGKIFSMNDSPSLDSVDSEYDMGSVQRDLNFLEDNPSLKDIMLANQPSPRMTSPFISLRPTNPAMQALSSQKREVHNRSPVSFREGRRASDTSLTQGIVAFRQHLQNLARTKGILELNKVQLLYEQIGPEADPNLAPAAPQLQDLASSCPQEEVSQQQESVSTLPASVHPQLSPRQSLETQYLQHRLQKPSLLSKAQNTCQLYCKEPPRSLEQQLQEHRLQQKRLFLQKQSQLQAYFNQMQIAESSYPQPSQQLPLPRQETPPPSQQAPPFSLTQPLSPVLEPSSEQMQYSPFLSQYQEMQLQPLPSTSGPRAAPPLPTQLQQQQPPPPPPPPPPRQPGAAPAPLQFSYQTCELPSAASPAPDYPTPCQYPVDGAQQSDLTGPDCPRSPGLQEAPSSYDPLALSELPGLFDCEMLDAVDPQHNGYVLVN
Experimental: as §1
as §2, with “Only one phosphorylation is observed under the assay conditions. 60 nl of each compound dilution series (12 point; dilution factor 3, generally 30 μM to 170 pM) in DMSO were transferred by acoustic dispensing to the assay plate and 30 min pre-incubated (ambient temperature) after the addition of 5 μl SIK1 (5 nM) resp.” left out, “1936529-65-5).” for “1936529-65-5). The results of the assay are expressed in half-maximal inhibitory concentrations (IC50s) and are summarized below in Table 1.”
as §3, §4, §5, §6

SIK3 = SIK3 (Homo sapiens, UniProt Q9Y2K2); test: Enzymatic activity assay SIK3, RapidFire mass spectrometry (phosphorylation of CHK-peptide); conditions: RapidFire MS, inhibition of SIK3; read-out: SIK3 RF IC50
Chain of SIK3 (Q9Y2K2 whole entry): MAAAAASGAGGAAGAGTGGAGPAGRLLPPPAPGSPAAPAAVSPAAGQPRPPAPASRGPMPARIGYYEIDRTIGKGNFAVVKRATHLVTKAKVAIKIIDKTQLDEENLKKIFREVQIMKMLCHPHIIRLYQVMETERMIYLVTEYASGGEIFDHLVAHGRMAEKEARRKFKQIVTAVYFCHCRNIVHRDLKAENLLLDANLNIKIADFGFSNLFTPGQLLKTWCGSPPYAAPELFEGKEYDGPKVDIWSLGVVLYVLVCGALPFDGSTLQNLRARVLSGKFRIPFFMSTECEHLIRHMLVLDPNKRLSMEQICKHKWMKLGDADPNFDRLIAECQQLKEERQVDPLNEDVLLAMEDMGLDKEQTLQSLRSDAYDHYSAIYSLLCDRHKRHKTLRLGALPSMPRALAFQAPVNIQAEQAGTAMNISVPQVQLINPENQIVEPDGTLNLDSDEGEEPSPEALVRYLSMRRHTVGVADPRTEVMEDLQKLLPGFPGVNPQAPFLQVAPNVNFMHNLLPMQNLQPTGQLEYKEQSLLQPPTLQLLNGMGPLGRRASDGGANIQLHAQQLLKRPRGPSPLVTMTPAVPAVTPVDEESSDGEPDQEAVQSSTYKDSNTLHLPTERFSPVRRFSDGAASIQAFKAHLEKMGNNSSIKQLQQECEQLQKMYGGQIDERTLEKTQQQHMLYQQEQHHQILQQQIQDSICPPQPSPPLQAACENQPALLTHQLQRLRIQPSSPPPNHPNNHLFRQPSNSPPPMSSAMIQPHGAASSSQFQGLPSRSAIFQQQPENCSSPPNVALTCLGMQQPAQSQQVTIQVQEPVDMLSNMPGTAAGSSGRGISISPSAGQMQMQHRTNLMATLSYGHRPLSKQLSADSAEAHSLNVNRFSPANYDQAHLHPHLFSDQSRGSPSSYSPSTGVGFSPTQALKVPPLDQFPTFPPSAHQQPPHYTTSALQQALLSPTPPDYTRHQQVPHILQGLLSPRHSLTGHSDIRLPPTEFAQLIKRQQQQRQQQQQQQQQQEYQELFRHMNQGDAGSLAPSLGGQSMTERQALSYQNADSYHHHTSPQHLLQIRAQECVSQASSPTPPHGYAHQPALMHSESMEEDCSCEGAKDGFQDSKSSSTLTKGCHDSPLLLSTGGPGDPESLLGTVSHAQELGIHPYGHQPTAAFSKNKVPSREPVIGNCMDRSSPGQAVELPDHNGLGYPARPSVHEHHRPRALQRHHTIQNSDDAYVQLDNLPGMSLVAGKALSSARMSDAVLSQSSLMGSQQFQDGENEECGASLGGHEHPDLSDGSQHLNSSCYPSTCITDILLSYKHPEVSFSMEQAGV
Experimental: as §1, §2, §3, §4, §5, §6

Chain of SIK1 (P57059 whole entry): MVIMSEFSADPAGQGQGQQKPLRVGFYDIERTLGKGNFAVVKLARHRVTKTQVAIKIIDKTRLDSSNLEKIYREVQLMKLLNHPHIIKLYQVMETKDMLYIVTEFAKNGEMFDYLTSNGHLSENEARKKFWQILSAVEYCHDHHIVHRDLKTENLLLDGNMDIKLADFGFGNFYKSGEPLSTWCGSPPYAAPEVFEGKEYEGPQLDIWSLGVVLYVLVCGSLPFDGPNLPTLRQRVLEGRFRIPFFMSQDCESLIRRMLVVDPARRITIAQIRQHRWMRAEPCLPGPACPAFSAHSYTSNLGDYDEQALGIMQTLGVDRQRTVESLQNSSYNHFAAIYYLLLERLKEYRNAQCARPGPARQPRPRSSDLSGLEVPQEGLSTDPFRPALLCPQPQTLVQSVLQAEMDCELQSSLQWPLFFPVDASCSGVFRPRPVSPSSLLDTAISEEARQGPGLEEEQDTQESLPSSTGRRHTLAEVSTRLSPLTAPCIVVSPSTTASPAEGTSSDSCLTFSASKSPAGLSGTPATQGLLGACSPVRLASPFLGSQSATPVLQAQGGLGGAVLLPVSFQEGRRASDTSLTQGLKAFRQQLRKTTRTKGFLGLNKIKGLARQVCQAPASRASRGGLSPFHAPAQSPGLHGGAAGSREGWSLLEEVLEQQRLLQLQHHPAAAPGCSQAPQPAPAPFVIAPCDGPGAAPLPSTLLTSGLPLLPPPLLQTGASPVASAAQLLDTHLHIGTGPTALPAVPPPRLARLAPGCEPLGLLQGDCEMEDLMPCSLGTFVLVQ

IC50 (SIK1) [µM]	IC50 (SIK2) [µM]	IC50 (SIK3) [µM]	SMILES
0.253	0.0028	0.0031	Cc1ccc(Nc2ccc3c(c2)ncn3-c2ccc(C(C)O)c(-n3nc(C(F)(F)F)c4c3CCN(C3COC3)C4)n2)nn1 (centres unmarked) [Example 177, 1-[6-[5-[(6-Methylpyridazin-3-yl)amino]benzimidazol-1-yl]-2-[5-(oxetan-3-yl)-3-(trifluoromethyl)-6,7-dihydro-4H-pyrazolo[4,3-c]pyridin-1-yl]-3-pyridyl]ethanol]
1.99	2.5	1.9	Cc1ccc(Nc2ccc3ncn(-c4ccc(C(C)O)c(N5CC(C)(C#N)C5)n4)c3c2)nn1 (centres unmarked) [Example 184, 1-[3-(1-Hydroxyethyl)-6-[6-[(6-methylpyridazin-3-yl)amino]benzimidazol-1-yl]-2-pyridyl]-3-methyl-azetidine-3-carbonitrile]
1.12	0.0063	0.0039	Cc1ccc(Nc2cc3ncn(-c4ccc(CO)c(-n5nc(C#N)cc5C)n4)c3cc2F)nn1 [Example 347, 1-[6-[6-fluoro-5-[(6-methylpyridazin-3-yl)amino]benzimidazol-1-yl]-3-(hydroxymethyl)-2-pyridyl]-5-methyl-pyrazole-3-carbonitrile]
3.8	0.067	0.0606	Cc1nn(CC(F)(F)F)cc1-c1nc(-n2cnc3cc(Oc4ccc(CN5CCOCC5)nn4)ccc32)ccc1C(C)O (centres unmarked) [Example 350, 1-[2-[3-methyl-1-(2,2,2-trifluoroethyl)pyrazol-4-yl]-6-[5-[6-(morpholinomethyl)pyridazin-3-yl]oxybenzimidazol-1-yl]-3-pyridyl]ethanol]
0.106	0.0771	1.1	CCc1cc(C(F)F)nn1-c1nc(-n2cnc3ccc(Nc4ccc(C)nn4)cc32)ccc1C(C)O (centres unmarked) [Example 368, 1-[2-[3-(difluoromethyl)-5-ethyl-pyrazol-1-yl]-6-[6-[(6-methylpyridazin-3-yl)amino]benzimidazol-1-yl]-3-pyridyl]ethanol]
0.283	0.0039	0.0007	Cc1ccc(Nc2ccc3c(c2)ncn3-c2ccc(C(C)O)c(-n3ccc(C#N)n3)n2)nn1 (centres unmarked) [Example 115, 1-[3-(1-Hydroxyethyl)-6-[5-[(6-methylpyridazin-3-yl)amino]benzimidazol-1-yl]-2-pyridyl]pyrazole-3-carbonitrile]
0.193	0.0895	0.155	Cc1ccc(Nc2ccc3ncn(-c4ccc(C(C)O)c(-n5nc(C(F)F)cc5C)n4)c3c2)nn1 (centres unmarked) [Example 128, 1-[2-[3-(Difluoromethyl)-5-methyl-pyrazol-1-yl]-6-[6-[(6-methylpyridazin-3-yl)amino]benzimidazol-1-yl]-3-pyridyl]ethanol]
0.051	0.0388	0.174	COc1cc2ncn(-c3ccc(C(C)O)c(-n4nc(C#N)cc4C)n3)c2cc1Nc1ccc(C)nn1 (centres unmarked) [Example 140, 1-[3-(1-Hydroxyethyl)-6-[5-methoxy-6-[(6-methylpyridazin-3-yl)amino]benzimidazol-1-yl]-2-pyridyl]-5-methyl-pyrazole-3-carbonitrile]
0.005	0.0002	0.0003	Cc1ccc(Nc2cc3ncn(-c4ccc([C@H](C)O)c(-n5nc(C#N)cc5C)n4)c3cc2OC(F)F)nn1 [Example 402, 1-[6-[6-(difluoromethoxy)-5-[(6-methylpyridazin-3-yl)amino]benzimidazol-1-yl]-3-[(1S)-1-hydroxyethyl]-2-pyridyl]-5-methyl-pyrazole-3-carbonitrile]
8.97	0.161	0.0345	Cc1ccc(Nc2ccc3c(c2)ncn3-c2ccc(C(C)O)c(-n3cc(C#N)nn3)n2)nn1 (centres unmarked) [Example 253, 1-[3-(1-Hydroxyethyl)-6-[5-[(6-methylpyridazin-3-yl)amino]benzimidazol-1-yl]-2-pyridyl]triazole-4-carbonitrile]
7.39	0.327	0.0662	Cc1ccc(Nc2ccc3c(c2)ncn3-c2ccc(C(C)O)c(-c3c(C#N)cnn3C)n2)nn1 (centres unmarked) [Example 76, 5-[3-(1-Hydroxyethyl)-6-[5-[(6-methylpyridazin-3-yl)amino]benzimidazol-1-yl]-2-pyridyl]-1-methyl-pyrazole-4-carbonitrile]
0.985	0.0252	0.0048	CCn1nc(C(F)(F)F)cc1-c1nc(-n2cnc3cc(Nc4ccc(C)nn4)ccc32)ccc1C(C)O (centres unmarked) [Example 250, 1-[2-[2-Ethyl-5-(trifluoromethyl)pyrazol-3-yl]-6-[5-[(6-methylpyridazin-3-yl)amino]benzimidazol-1-yl]-3-pyridyl]ethanol]
1.67	0.189	0.176	CC(O)c1ccc(-n2cnc3cc(OCCN4CCOCC4)ccc32)nc1-n1ccc(C(F)(F)F)n1 (centres unmarked) [Example 62, 1-[6-[5-(2-Morpholinoethoxy)benzimidazol-1-yl]-2-[3-(trifluoromethyl)pyrazol-1-yl]-3-pyridyl]ethanol]
0.084	0.0003	0.0003	Cc1ccc(Nc2cc3ncn(-c4ccc([C@H](C)O)c(-n5nc(C#N)cc5C)n4)c3cc2F)nn1 [Example 236, 1-[6-[6-Fluoro-5-[(6-methylpyridazin-3-yl)amino]benzimidazol-1-yl]-3-[(1S)-1-hydroxyethyl]-2-pyridyl]-5-methyl-pyrazole-3-carbonitrile]
0.055	0.0327	0.195	Cc1cc(C#N)nn1-c1nc(-n2cnc3cc(F)c(Nc4cc5c(nn4)CCC5)cc32)ccc1C(C)O (centres unmarked) [Example 381, 1-[6-[6-(6,7-dihydro-5~{H}-cyclopenta[c]pyridazin-3-ylamino)-5-fluoro-benzimidazol-1-yl]-3-(1-hydroxyethyl)-2-pyridyl]-5-methyl-pyrazole-3-carbonitrile]
0.059		0.0006	Cc1ccc(Nc2ccc3c(c2)ncn3-c2ccc(C(C)O)c(-n3nc(C#N)cc3C)n2)nn1 (centres unmarked) [Example 64, 1-[3-(1-Hydroxyethyl)-6-[5-[(6-methylpyridazin-3-yl)amino]benzimidazol-1-yl]-2-pyridyl]-5-methyl-pyrazole-3-carbonitrile]
1.8		0.0186	Cc1ccc(Nc2ccc3c(c2)ncn3-c2ccc([C@H](C)O)c(-n3nc(C#N)cc3C)n2)nn1 [Example 109, 5-Methyl-1-[6-[5-[(6-methylpyridazin-3-yl)amino]benzimidazol-1-yl]-3-[(1S)-1-hydroxyethyl]-2-pyridyl]pyrazole-3-carbonitrile]
	1.24	1.06	Cc1ccc(Nc2ccc3c(c2)ncn3-c2ccc(C(C)O)c(-c3cccnc3-c3cn[nH]c3)n2)nn1 (centres unmarked) [Example 186, 1-[6-[5-[(6-Methylpyridazin-3-yl)amino]benzimidazol-1-yl]-2-[2-(1H-pyrazol-4-yl)-3-pyridyl]-3-pyridyl]ethanol]
0.026		0.0002	Cc1ccc(Nc2ccc3c(c2)ncn3-c2ccc([C@@H](C)O)c(-n3nc(C#N)cc3C)n2)nn1 [Example 110, 5-Methyl-1-[6-[5-[(6-methylpyridazin-3-yl)amino]benzimidazol-1-yl]-3-[(1R)-1-hydroxyethyl]-2-pyridyl]pyrazole-3-carbonitrile]

Source: patent US20240383875A1, “Benzimidazole Pyridine Derivatives” (Hoffmann-La Roche Inc., priority 2022, published 2024)
